Reference: article PMC3794980, “Identification of Conserved and HLA Promiscuous DENV3 T-Cell Epitopes” (PLoS Neglected Tropical Diseases, 2013)
Where no end group is shown, it is not given here.

How the values were obtained:
Test in all cases: biochemical
Format in all cases: binding
DRB5*0101 = DRB5*0101 (Homo sapiens, UniProt P01903+Q30154)
DRB4*0101 = DRB4*0101 (Homo sapiens, UniProt P01903+P13762, G164S)
DRB3*0101 = DRB3*0101 (Homo sapiens, UniProt P01903+P79483)

Molecule | IC50 (DRB5*0101) [µM] | IC50 (DRB4*0101) [µM] | IC50 (DRB3*0101) [µM]
CC[C@H](C)[C@H](NC(=O)[C@H](CC(C)C)NC(=O)[C@H](CCC(=O)O)NC(=O)[C@H](CC(=O)O)NC(=O)[C@H](CCC(N)=O)NC(=O)[C@@H]1CCCN1C(=O)[C@H](CCCNC(=N)N)NC(=O)[C@H](CS)NC(=O)[C@@H]1CCCN1C(=O)[C@@H](NC(=O)[C@@H](NC(=O)[C@H](CC(C)C)NC(=O)[C@H](CCCCN)NC(=O)[C@H](CCCNC(=N)N)NC(=O)CNC(=O)[C@H](CC(=O)O)NC(=O)[C@@H](N)CCCCN)C(C)C)C(C)C)C(=O)O [NS5 719-735] | 3.44 | 17.8 | 5.68
CC(C)[C@H](NC(=O)[C@@H]1CCCN1C(=O)[C@@H](NC(=O)[C@H](C)NC(=O)[C@H](CO)NC(=O)[C@@H](N)CS)C(C)C)C(=O)N[C@@H](Cc1c[nH]cn1)C(=O)N[C@@H](Cc1c[nH]c2ccccc12)C(=O)N[C@H](C(=O)N1CCC[C@H]1C(=O)N[C@H](C(=O)N[C@@H](CO)C(=O)N[C@@H](CCCNC(=N)N)C(=O)N[C@H](C(=O)N[C@H](C(=O)N[C@@H](Cc1c[nH]c2ccccc12)C(=O)O)[C@@H](C)O)[C@@H](C)O)[C@@H](C)O)C(C)C [NS5 780-795] | 1.95 | 0.168 | 2.34
ALTGATEIQNSGGTS [Envelope 261-275] | 3.67 | 8.57 | 17.5
CC[C@H](C)[C@H](N)C(=O)N[C@H](C(=O)N[C@H](C(=O)NCC(=O)N[C@H](C(=O)NCC(=O)N[C@@H](CC(=O)O)C(=O)N[C@@H](CC(N)=O)C(=O)N[C@@H](C)C(=O)N[C@@H](CC(C)C)C(=O)N[C@@H](CCCCN)C(=O)N[C@H](C(=O)N[C@@H](CC(N)=O)C(=O)N[C@@H](Cc1c[nH]c2ccccc12)C(=O)N[C@@H](Cc1ccc(O)cc1)C(=O)O)[C@@H](C)CC)[C@@H](C)CC)[C@@H](C)CC)C(C)C [Envelope 376-390] | 1.25 | 1.24 | 0.015
CC[C@H](C)[C@H](NC(=O)[C@H](C)NC(=O)CNC(=O)[C@@H](NC(=O)[C@H](CCC(=O)O)NC(=O)CNC(=O)[C@@H](NC(=O)[C@@H](NC(=O)[C@@H](NC(=O)[C@H](CCC(N)=O)NC(=O)[C@H](Cc1ccccc1)NC(=O)[C@@H](NC(=O)CNC(=O)[C@@H]1CCCN1)[C@@H](C)O)[C@@H](C)O)[C@@H](C)O)[C@@H](C)O)[C@@H](C)CC)C(=O)N[C@@H](C)C(=O)O [NS3 113-127] | 2.1 | 1.84 | 3.07
CC(C)C[C@H](NC(=O)[C@H](CCCNC(=N)N)NC(=O)[C@H](CCCCN)NC(=O)[C@@H]1CCCN1C(=O)[C@H](CO)NC(=O)[C@H](CC(=O)O)NC(=O)[C@H](C)NC(=O)[C@H](CCC(N)=O)NC(=O)[C@H](Cc1ccccc1)NC(=O)[C@H](CCCCN)NC(=O)[C@H](Cc1ccc(O)cc1)NC(=O)[C@H](CCC(N)=O)NC(=O)[C@H](CCC(=O)O)NC(=O)[C@@H](N)[C@@H](C)O)C(=O)N[C@@H](C)C(=O)O [NS1 29-43] | 0.023 | 14.4 | 0.011
CC(C)C[C@H](NC(=O)[C@H](Cc1ccccc1)NC(=O)CN)C(=O)N[C@@H](CC(N)=O)C(=O)N[C@@H](CCC(=O)O)C(=O)N[C@@H](CC(=O)O)C(=O)N[C@@H](Cc1c[nH]cn1)C(=O)N[C@@H](Cc1c[nH]c2ccccc12)C(=O)N[C@@H](Cc1ccccc1)C(=O)N[C@@H](CO)C(=O)N[C@@H](CCCNC(=N)N)C(=O)N[C@@H](CCC(=O)O)C(=O)N[C@@H](CC(N)=O)C(=O)N[C@@H](CO)C(=O)N[C@@H](Cc1ccc(O)cc1)C(=O)N[C@@H](CO)C(=O)NCC(=O)O [NS5 489-505] | 0.936 | 13.9 | 0.387
CC[C@H](C)[C@H](NC(=O)[C@H](CS)NC(=O)[C@H](Cc1ccccc1)NC(=O)[C@H](CCC(N)=O)NC(=O)[C@@H](N)CC(N)=O)C(=O)N[C@@H](CCCCN)C(=O)N[C@H](C(=O)N[C@@H](CC(C)C)C(=O)N[C@@H](CC(N)=O)C(=O)N1CCC[C@H]1C(=O)N[C@@H](Cc1ccc(O)cc1)C(=O)N[C@@H](CCSC)C(=O)N1CCC[C@H]1C(=O)N[C@H](C(=O)N[C@H](C(=O)N[C@H](C(=O)N[C@@H](CCC(=O)O)C(=O)O)[C@@H](C)CC)C(C)C)[C@@H](C)O)C(C)C [NS5 175-191] | 0.722 | 6.64 | 1.34
CC[C@H](C)[C@H](NC(=O)[C@H](Cc1ccc(O)cc1)NC(=O)CNC(=O)[C@H](CCCNC(=N)N)NC(=O)[C@H](C)N)C(=O)N[C@@H](CO)C(=O)N[C@H](C(=O)N[C@@H](CCCNC(=N)N)C(=O)N[C@H](C(=O)NCC(=O)N[C@@H](CCSC)C(=O)NCC(=O)N[C@@H](CCC(=O)O)C(=O)N[C@@H](C)C(=O)N[C@@H](C)C(=O)O)C(C)C)[C@@H](C)O [NS3 297-311] | 3.45 | 7.23 | 8.65
CC(C)C[C@H](NC(=O)[C@H](CCCCN)NC(=O)CNC(=O)[C@H](CC(C)C)NC(=O)[C@@H](N)Cc1c[nH]cn1)C(=O)N[C@@H](CCC(=O)O)C(=O)N[C@@H](CC(C)C)C(=O)N[C@@H](CC(=O)O)C(=O)N[C@@H](Cc1ccccc1)C(=O)N[C@@H](CC(N)=O)C(=O)N[C@@H](Cc1ccc(O)cc1)C(=O)N[C@@H](CS)C(=O)N[C@@H](CCC(=O)O)C(=O)NCC(=O)N[C@H](C(=O)O)[C@@H](C)O [NS1 269-283] | 9.47 | 0.085 | 0.071
CC[C@H](C)[C@H](NC(=O)[C@H](C)NC(=O)[C@@H](N)CCSC)C(=O)N[C@@H](CO)C(=O)NCC(=O)N[C@@H](CC(=O)O)C(=O)N[C@@H](CC(=O)O)C(=O)N[C@@H](CS)C(=O)N[C@H](C(=O)N[C@H](C(=O)N[C@@H](CCCCN)C(=O)N1CCC[C@H]1C(=O)N[C@H](C(=O)N[C@@H](CC(=O)O)C(=O)N[C@@H](CC(=O)O)C(=O)N[C@@H](CCCNC(=N)N)C(=O)N[C@@H](Cc1ccccc1)C(=O)O)[C@@H](C)CC)C(C)C)C(C)C [NS5 658-674] | 1.54 | 19.4 | 1.93
GTILVKVEYKGEDAP [Envelope 316-330] | 5.26 | 6.03 | 5.29
CC(C)C[C@H](NC(=O)[C@H](CCCCN)NC(=O)[C@@H](NC(=O)[C@H](CCCCN)NC(=O)[C@H](CCC(N)=O)NC(=O)[C@H](Cc1ccc(O)cc1)NC(=O)[C@H](CCC(=O)O)NC(=O)[C@@H](NC(=O)[C@H](CC(=O)O)NC(=O)[C@H](Cc1ccccc1)NC(=O)[C@@H](NC(=O)[C@@H](N)CCCCN)[C@@H](C)O)[C@@H](C)O)[C@@H](C)O)C(=O)N[C@@H](CC(N)=O)C(=O)N[C@@H](CC(=O)O)C(=O)N[C@@H](Cc1c[nH]c2ccccc12)C(=O)O [NS3 389-403] | 2.33 | 9.91 | 4.53
CC[C@H](C)[C@H](NC(=O)[C@@H](NC(=O)[C@H](CCCCN)NC(=O)[C@H](CCCCN)NC(=O)CNC(=O)[C@H](CC(N)=O)NC(=O)[C@H](CCCCN)NC(=O)[C@H](CCCNC(=N)N)NC(=O)[C@H](CC(C)C)NC(=O)[C@H](CS)NC(=O)[C@H](CC(N)=O)NC(=O)[C@H](C)N)C(C)C)C(=O)N[C@@H](CCC(N)=O)C(=O)N[C@@H](CC(C)C)C(=O)N[C@@H](CO)C(=O)O [NS3 373-387] | 3.54 | 1.63 | 3.43
LGSQEGAMHTALTGA [Envelope 251-265] | 0.722 | 7.21 | 5.59
TRGAVLTYNGKRLEP [NS3 53-67] | 0.329 | 11.5 | 3.29
CC[C@H](C)[C@H](N)C(=O)NCC(=O)N[C@@H](CCCCN)C(=O)N[C@@H](CCSC)C(=O)N[C@@H](Cc1ccccc1)C(=O)N[C@@H](CCC(=O)O)C(=O)N[C@@H](C)C(=O)N[C@H](C(=O)N[C@@H](C)C(=O)N[C@@H](CCCNC(=N)N)C(=O)NCC(=O)N[C@@H](C)C(=O)N[C@@H](CCCNC(=N)N)C(=O)N[C@@H](CCCNC(=N)N)C(=O)N[C@@H](CCSC)C(=O)O)[C@@H](C)O [Envelope 396-410] | 0.027 | 3.61 | 0.424
CC[C@H](C)[C@H](NC(=O)[C@H](CCC(=O)O)NC(=O)CNC(=O)[C@H](CCCNC(=N)N)NC(=O)[C@H](CCCCN)NC(=O)[C@@H](N)CC(C)C)C(=O)N[C@H](C(=O)N[C@@H](Cc1c[nH]cn1)C(=O)N[C@@H](Cc1c[nH]cn1)C(=O)N[C@@H](C)C(=O)N[C@H](C(=O)N[C@@H](CO)C(=O)N[C@@H](CCCNC(=N)N)C(=O)NCC(=O)N[C@@H](CO)C(=O)N[C@@H](C)C(=O)N[C@@H](CCCCN)C(=O)O)C(C)C)[C@@H](C)O [NS5 45-61] | 0.449 | 0.0085 | 7.5
CC(C)C[C@H](NC(=O)[C@H](CCCCN)NC(=O)CNC(=O)[C@H](CO)NC(=O)[C@@H](NC(=O)[C@@H](NC(=O)[C@@H](NC(=O)[C@@H](NC(=O)[C@H](CCCNC(=N)N)NC(=O)[C@H](CC(C)C)NC(=O)[C@H](CO)NC(=O)[C@@H]1CCCN1C(=O)CNC(=O)[C@H](CCCNC(=N)N)NC(=O)[C@@H](N)[C@@H](C)O)[C@@H](C)O)[C@@H](C)O)[C@@H](C)O)C(C)C)C(=O)O [NS1 293-307] | 2.61 | 0.793 | 2.28
CC[C@H](C)[C@H](NC(=O)[C@H](CC(=O)O)NC(=O)[C@H](CCSC)NC(=O)[C@@H](N)C(C)C)C(=O)N[C@H](C(=O)N[C@@H](CO)C(=O)N[C@@H](CCCNC(=N)N)C(=O)N[C@@H](CCCCN)C(=O)N[C@@H](CC(=O)O)C(=O)N[C@@H](CCC(N)=O)C(=O)N[C@@H](CCCNC(=N)N)C(=O)NCC(=O)N[C@@H](CO)C(=O)NCC(=O)N[C@@H](CCC(N)=O)C(=O)N[C@H](C(=O)NCC(=O)O)C(C)C)[C@@H](C)CC [NS5 588-604] | 17.1 | 6.24 | 4.26
CC[C@H](C)[C@H](NC(=O)[C@H](C)NC(=O)CNC(=O)[C@@H](NC(=O)[C@H](CCC(=O)O)NC(=O)CN)[C@@H](C)CC)C(=O)N[C@@H](C)C(=O)N[C@@H](CC(C)C)C(=O)N[C@@H](CC(=O)O)C(=O)N[C@@H](Cc1ccccc1)C(=O)N[C@@H](CCCCN)C(=O)N1CCC[C@H]1C(=O)NCC(=O)N[C@H](C(=O)N[C@@H](CO)C(=O)O)[C@@H](C)O [NS3 121-135] | 11.9 | 0.04 | 2.21
TNTFVLKKEVSETQH [Envelope 301-315] | 4.89 | 2.19 | 2.83
